# Source: patent publication US7030137B2, “Substituted thiophenes with antibacterial activity” (Replidyne, Inc., priority 2003, dated 2006)
# Key:
# [1] = target: T1, recombinant H. influenzae MRS (Haemophilus influenzae, UniProt P43828); experiment: Enzyme Inhibition (H. influenzae MRS) aminoacylation assay; format: biochemical; conditions: read-out: IC50 against H. influenzae MRS
# T1 construct: made in house
# Protocol: 2. Enzyme Inhibition (H. influenzae MRS)—aminoacylation assay
# Compounds of the present invention may be assayed for their ability to inhibit the enzyme methionyl tRNA synthetase (MRS), using recombinant H. influenzae MRS(R. D. Fleischmann et al., Science, 269, 496–512, 1995), as follows:
# The reaction is started by adding 20 μl appropriately diluted pure enzyme (pre-incubated with inhibitor) to 25 μl reaction mix for 10 min at room temperature. The reaction is terminated by the addition of 150 μl 167 mM sodium citrate, pH 2.15 containing phosphodiesterase (PDE) SPA beads (0.833 mg/ml). The binding of the radiolabelled product to the bead brings the isotope into close enough proximity to allow radiation from the tritium to excite the scintillant within the bead. Any unbound radiolabel is not close enough to the scintillant to allow this energy transfer, so no signal is generated. Following termination of the reaction, plates are spun at 2500 rpm for 5 min in a Mistral 3000E plate centrifuge (or alternatively allowed to stand for 1 hour). The assay is conducted in 96-well Optiplates (Packard). Plates are counted on a TopCount. (Packard 96 well counter).
# Mixed E. coli MRE 600 tRNA and ATP were purchased from Boehringer-Mannheim, L-[methyl-^3H]methionine and phosphodiesterase scintillation proximity (SPA) beads from Amersham Pharmacia Biotech and other reagents from Sigma.
# [2] = tested on: H. influenzae; experiment: MIC H. influenzae (standard MIC assay modified by inclusion of cyclodextrin); format: cell-based; conditions: Haemophilus influenzae
# Protocol: (§1) Compounds of the present invention were assayed for antibacterial activity against a range of pathogenic organisms (strains of S aureus, S pneumoniae, E faecalis, H influenzae and M catarrhalis) in a standard MIC assay modified by the inclusion of cyclodextrin, to assist with solubility.
# [3] = tested on: S. aureus, S. pneumoniae, and E. faecalis; experiment: MIC against some strains of gram positive pathogens; format: cell-based
# Protocol: as §1
# [4] = tested on: S. aureus; experiment: MIC S. aureus (standard MIC assay modified by inclusion of cyclodextrin); format: cell-based; conditions: Staphylococcus aureus
# Protocol: as §1
# [5] = tested on: S. pneumo; experiment: MIC S. pneumo (standard MIC assay modified by inclusion of cyclodextrin); format: cell-based; conditions: Streptococcus pneumoniae
# Protocol: as §1
# [6] = tested on: M catarrhalis and H. influenzae; experiment: MIC against some strains of gram negative pathogens; format: cell-based; conditions: Haemophilus influenzae
# Protocol: as §1
# T1 sequence (P43828 whole entry): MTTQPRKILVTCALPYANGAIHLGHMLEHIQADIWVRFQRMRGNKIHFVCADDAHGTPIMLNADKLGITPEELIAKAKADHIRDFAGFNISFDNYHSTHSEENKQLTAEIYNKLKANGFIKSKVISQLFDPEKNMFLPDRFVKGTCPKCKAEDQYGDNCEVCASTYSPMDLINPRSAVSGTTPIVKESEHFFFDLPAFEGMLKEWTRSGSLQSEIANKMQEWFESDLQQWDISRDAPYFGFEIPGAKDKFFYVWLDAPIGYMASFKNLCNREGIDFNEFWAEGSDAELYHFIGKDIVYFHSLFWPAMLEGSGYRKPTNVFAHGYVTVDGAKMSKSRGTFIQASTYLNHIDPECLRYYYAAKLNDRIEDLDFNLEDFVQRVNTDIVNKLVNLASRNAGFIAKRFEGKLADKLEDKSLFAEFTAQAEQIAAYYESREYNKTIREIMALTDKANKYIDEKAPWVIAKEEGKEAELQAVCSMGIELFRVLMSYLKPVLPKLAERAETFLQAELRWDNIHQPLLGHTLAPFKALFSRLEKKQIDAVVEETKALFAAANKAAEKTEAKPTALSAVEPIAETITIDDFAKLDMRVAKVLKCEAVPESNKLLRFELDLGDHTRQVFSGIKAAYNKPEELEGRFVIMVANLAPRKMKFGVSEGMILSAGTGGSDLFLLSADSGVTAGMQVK
Compound,IC50 [1] [µM],MIC [2] [mg/L],MIC [3] [mg/L],MIC [4] [mg/L],MIC [5] [mg/L],MIC [6] [mg/L]
"Cc1c(CNCCCNc2nc3cscc3[nH]2)sc(Br)c1Br [Example 18, N-(4,5-Dibromo-3-methylthiophen-2-ylmethyl)-N′-(1H-thieno[3,4-d]imidazol-2-yl)propane-1,3-diamine]",≤ 0.2,8,0.06 to 0.5,0.13,0.25,0.13 to 8
"C=C(F)c1sc(CNCCCNc2nc3cscc3[nH]2)c(C)c1Br [Example 21, N-(4-bromo-5-(1-fluorovinyl)-3-methylthiophen-2-ylmethyl)-N′-(1H-thieno[3,4-d]imidazol-2-yl)propane-1,3-diamine]",≤ 0.2,8,0.06 to 0.5,0.06,0.25,0.13 to 8
